Among the data in patent US11014934B2, “Antiseptic drug” (AO “TATKHIMFARMPREPARATY”, priority 2017, dated 2021) are MIC values, retold here.

Assay in all cases: MIC, serial dilutions in Müller-Hinton broth
Format in all cases: cell-based

In assay [1] the test system is A. baumannii 1440. As for the experimental part:
(§1) A comparative assessment of the spectrum of antibacterial action was carried out on archival and clinical strains of gram-positive and gram-negative microorganisms in accordance with the [Opredeleniye chuvstvitel'nosti mikroorganizmov k antibakterial'nym preparatam (Metodicheskiye ukazaniya MUK 4.2.1890-04). Utverzhdeny i vvedeny v deystviye Glavnym gosudarstvennym sanitarnym vrachom Rossiyskoy Federatsii G. G. Onishchenko 04.03.2004 g. Determination of the sensitivity of microorganisms to antibacterial drugs (Guidelines MUK 4.2.1890-04). Approved and put into effect by the Chief State Sanitary Doctor of the Russian Federation G. G. Onishchenko on 4 Mar. 2004].
(§2) The value of the minimum inhibitory concentration (MIC) was determined by the method of serial dilutions on Müller-Hinton broth using 96-well sterile plates. Two-fold dilutions of the test substances in a nutrient medium were prepared. The final concentrations were 1-128 ug/ml. The growth of cultures was assessed visually, comparing the growth of microorganisms in the presence of test compounds with the growth of culture without them. […] The first lowest concentration of the studied substance (from a series of consecutive dilutions), where bacterial growth is not visually determined, is considered to be the minimum inhibitory concentration (MIC). MIC was determined by the method of serial dilutions in broth with increment=2, so the differences of neighboring dilutions are not considered to be significant. In each experience there is a positive (broth with growing culture) and a negative (broth without growing culture) control.
(§3) To determine the MIC, 10 μl of culture medium was taken from those wells in which growth was not observed, and inoculation was performed on a dense Müller-Hinton broth. For the preparation of the inoculum, a pure, daily culture of gram-positive and gram-negative microorganisms grown on a dense nutrient medium was used. Nutrient medium is Müller-Hinton broth, which was prepared from dry media (Müller-Hinton broth, Acumedia, Baltimore), cultivation was carried out on agarized Müller-Hinton broth, including an additional 2% agar. The media were autoclaved at 121° C. for 15 minutes. In a sterile isotonic solution of sodium chloride, a suspension of microorganisms was prepared, adjusting the inoculum density to 0.5 according to the McFarland standard (1.5·10^8 CFU/ml). Then, the resulting inoculum was diluted to a concentration of 10^7 CFU/ml with Müller-Hinton broth. The inoculum was used within 15 minutes after preparation; the purity of the bacterial strains was monitored before each experiment.
(§4) 100 μl of Müller-Hinton broth was added to the wells of each plate; The tested substance was introduced into the first well at a concentration of 128 μg/ml in a volume of 100 μl and its concentration was adjusted to 0.5 μg/ml by consecutive two-fold dilution. Then, the prepared inoculum (100 μI) was added to each well, thereby diluting twice the concentration of the studied compounds. […] In addition, the purity of nutrient media and solvents was monitored. The plates were incubated in a thermostat at 37° C. for 24 hours. The growth of cultures was assessed visually, comparing the growth of microorganisms in the presence of test compounds with the growth of culture without them.
(§5) For the MIC was taken the minimum concentration of the studied compounds, providing complete suppression of the visible growth of the studied strains of microorganisms. The maximum value obtained in three independent experiments was taken as the MIC of the compound.

For assay [2], the system named is Acinetobacter spp. 1. Here is the method:
as §1, §2, §3, §4, §5

The subject of assay [3] is Acinetobacter spp. 3. Here is the method:
as §1, §2, §3, §4, §5

Assay [4] concerns Acinetobacter spp. 4. As for the experimental part:
as §1, §2, §3, §4, §5

Assay [5] relates to E. faecalis 26. As for the experimental part: as §1, §2, §3, §4, §5
Assay [6] has as its system E. faecalis 3047. As for the experimental part:
as §1, §2, §3, §4, §5

Assay [7] concerns E. faecalis 3051. As for the experimental part:
as §1, §2, §3, §4, §5

Assay [8] has as its system E. faecium 29. Here is the method:
as §1, §2, §3, §4, §5

In assay [9] the test system is E. faecium 3028. Here is the method: as §1, §2, §3, §4, §5
The subject of assay [10] is E. faecium 3062. As for the experimental part: as §1, §2, §3, §4, §5
In assay [11] the test system is E.coli ATCC 25922. As for the experimental part:
as §1, §2, §3, §4, §5

For assay [12], the system named is Kl. pneumoniae. Here is the method: as §1, §2, §3, §4, §5
In assay [13] the test system is Klebsiella spp. 12. Here is the method:
as §1, §2, §3, §4, §5

Assay [14] deals with Moraxella sp. 713. As for the experimental part: as §1, §2, §3, §4, §5
Assay [15] deals with Ps. aeruginosa 1913 PR. As for the experimental part:
as §1, §2, §3, §4, §5

Assay [16] concerns Pseudomonas spp.6. The conditions noted are these: inoculum 10^7 CFU/ml. As for the experimental part:
as §1, §2, §3, §4, §5

Assay [17] has as its system S. aureus 1130 MRSA. Here is the method: as §1, §2, §3, §4, §5
Assay [18] deals with S. aureus 19. Here is the method:
as §1, §2, §3, §4, §5

The test system of assay [19] is S. epidermidis 15990. Here is the method:
as §1, §2, §3, §4, §5

In assay [20] the test system is S. haemoliticus 837 MRSA. As for the experimental part: as §1, §2, §3, §4, §5
For assay [21], the system named is S. marcescens 1966 PR. As for the experimental part: as §1, §2, §3, §4, §5
For assay [22], the system named is S. marcescens. As for the experimental part:
as §1, §2, §3, §4, §5

Where two headings read alike, the source gives them in different places. Some results are limits rather than exact numbers.

By MIC is commonly meant the least concentration at which growth counts as inhibited. Consider `CCCCCCCCCCCC[N+](C)(C)Cc1cnc(C[N+](C)(C)CCCCCCCCCCCC)c2c1COC(CC)O2` (stereo not drawn) [Compound I, 5,8-(Bis(methylene (N, N-dimethyl-N-dodecylammonium))-2-ethyl-4H-[1,3]dioxino [4,5-c]pyridiniumdichloride], for which the minimal inhibitory concentration (MIC) amounted to 8 µg/mL in assay [1] (Acinetobacter baumannii, A. baumannii 1440, inoculum 10^7 CFU/ml, read-out: MIC); 16 µg/mL in assay [2] (Acinetobacter spp. 1, inoculum 10^7 CFU/ml, read-out: MIC); 8 µg/mL in assay [3] (Acinetobacter spp. 3, inoculum 10^7 CFU/ml, read-out: MIC); 8 µg/mL in assay [4] (Acinetobacter spp. 4, inoculum 10^7 CFU/ml, read-out: MIC); 1 µg/mL in assay [5] (Enterococcus faecalis, E. faecalis 26, inoculum 10^7 CFU/ml, read-out: MIC); 4 µg/mL in assay [6] (Enterococcus faecalis, E. faecalis 3047, inoculum 10^7 CFU/ml, read-out: MIC). Moreover, the minimum inhibitory concentration (MIC) was found to be 4 µg/mL in assay [7] (Enterococcus faecalis, E. faecalis 3051, inoculum 10^7 CFU/ml, read-out: MIC); 0.03 µg/mL in assay [8] (Enterococcus faecium, E. faecium 29, inoculum 10^7 CFU/ml, read-out: MIC); 1 µg/mL in assay [9] (Enterococcus faecium, E. faecium 3028, inoculum 10^7 CFU/ml, read-out: MIC); 0.5 µg/mL in [10] (Enterococcus faecium, E. faecium 3062, inoculum 10^7 CFU/ml, read-out: MIC); 2 µg/mL in assay [11] (Escherichia coli, ATCC25922, E.coli ATCC 25922, inoculum 10^7 CFU/ml, read-out: MIC); 2 µg/mL in assay [12] (Klebsiella pneumoniae, Kl. pneumoniae, inoculum 10^7 CFU/ml, read-out: MIC). Moreover, the MIC in assay [13] (Klebsiella spp. 12, inoculum 10^7 CFU/ml, read-out: MIC) is 16 µg/mL; in [14] (Moraxella sp. 713, inoculum 10^7 CFU/ml, read-out: MIC) it was 8 µg/mL; in assay [15] (Pseudomonas aeruginosa, Ps. aeruginosa 1913 PR, inoculum 10^7 CFU/ml, read-out: MIC) it was 64 µg/mL; in assay [16] (read-out: MIC), 16 µg/mL; in assay [17] (Staphylococcus aureus, S. aureus 1130 MRSA, inoculum 10^7 CFU/ml, read-out: MIC), 2 µg/mL; in [18] (Staphylococcus aureus, S. aureus 19, inoculum 10^7 CFU/ml, read-out: MIC), 2 µg/mL. In addition, the minimal inhibitory concentration (MIC) was 4 µg/mL in assay [19] (Staphylococcus epidermidis, S. epidermidis 15990, inoculum 10^7 CFU/ml, read-out: MIC); 8 µg/mL in assay [20] (S. haemoliticus 837 MRSA, inoculum 10^7 CFU/ml, read-out: MIC); 32 µg/mL in [21] (Serratia marcescens, S. marcescens 1966 PR, inoculum 10^7 CFU/ml, read-out: MIC); 4 µg/mL in [22] (Serratia marcescens, S. marcescens, inoculum 10^7 CFU/ml, read-out: MIC).

For “alkyldimethyl(phenylmethyl) ammonium chloride [Benzalconium chloride]”, the MIC in assay [1] (A. baumannii 1440, inoculum 10^7 CFU/ml) is 32 µg/mL; in assay [2] (Acinetobacter spp. 1, inoculum 10^7 CFU/ml) it was >64 µg/mL; in [3] (Acinetobacter spp. 3, inoculum 10^7 CFU/ml) it was 4 µg/mL; in [4] (Acinetobacter spp. 4, inoculum 10^7 CFU/ml), 4 µg/mL; in assay [5] (E. faecalis 26, inoculum 10^7 CFU/ml) it was 0.5 µg/mL; in assay [6] (E. faecalis 3047, inoculum 10^7 CFU/ml) it was 2 µg/mL. Further, the minimal inhibitory concentration (MIC) in [7] (E. faecalis 3051, inoculum 10^7 CFU/ml) was 2 µg/mL; in assay [8] (E. faecium 29, inoculum 10^7 CFU/ml), <0.5 µg/mL; in assay [9] (E. faecium 3028, inoculum 10^7 CFU/ml), 4 µg/mL; in assay [10] (E. faecium 3062, inoculum 10^7 CFU/ml), 1 µg/mL; in assay [11] (E.coli ATCC 25922, inoculum 10^7 CFU/ml), 1 µg/mL; in assay [12] (Kl. pneumoniae, inoculum 10^7 CFU/ml), >64 µg/mL. Also, the MIC was 2 µg/mL in assay [13] (Klebsiella spp. 12, inoculum 10^7 CFU/ml); 4 µg/mL in [14] (Moraxella sp. 713, inoculum 10^7 CFU/ml); >64 µg/mL in assay [15] (Ps. aeruginosa 1913 PR, inoculum 10^7 CFU/ml); 16 µg/mL in assay [16]; 2 µg/mL in assay [17] (S. aureus 1130 MRSA, inoculum 10^7 CFU/ml); <0.5 µg/mL in [18] (S. aureus 19, inoculum 10^7 CFU/ml). Also, the minimal inhibitory concentration (MIC) in assay [19] (S. epidermidis 15990, inoculum 10^7 CFU/ml) stood at 1 µg/mL; in assay [20] (S. haemoliticus 837 MRSA, inoculum 10^7 CFU/ml), 16 µg/mL; in assay [21] (S. marcescens 1966 PR, inoculum 10^7 CFU/ml) it was 64 µg/mL; in assay [22] (S. marcescens, inoculum 10^7 CFU/ml) it was 2 µg/mL.

In the case of `CCCCCCCCCCCCCC(=O)NCCC[N+](C)(C)Cc1ccccc1.O.[Cl-]` [Miramistin, benzyldimethyl [3-(myristoylamino)propyl]-ammonium chloride monohydrate], the MIC is 64 µg/mL in [1] (Acinetobacter baumannii, 1440); 64 µg/mL in assay [2] (Acinetobacter, SPP.1); 64 µg/mL in [3] (Acinetobacter, SPP.3); > 64 µg/mL in [4] (Acinetobacter, SPP.4); 4 µg/mL in [5] (Enterococcus faecalis, 26); 2 µg/mL in assay [6] (Enterococcus faecalis, 3047). Moreover, the MIC is 2 µg/mL in assay [7] (Enterococcus faecalis, 3051); 8 µg/mL in [8] (Enterococcus faecium, 29); 16 µg/mL in assay [9] (Enterococcus faecium, 3028); 0.5 µg/mL in assay [10] (Enterococcus faecium, 3062); 4 µg/mL in assay [11] (Escherichia coli, ATCC25922); > 64 µg/mL in [12] (Klebsiella pneumoniae). Further, the minimal inhibitory concentration (MIC) was > 64 µg/mL in [13] (Klebsiella, SPP.12); 32 µg/mL in [14] (Moraxella, SP.713); > 64 µg/mL in [15] (Pseudomonas aeruginosa, 1913PR); > 64 µg/mL in assay [16] (read-out: MIC); 4 µg/mL in [17] (Staphylococcus aureus, MRSA); 16 µg/mL in assay [18] (Staphylococcus aureus, 19). Moreover, the MIC in [19] (Staphylococcus epidermidis, 15990) came out at 8 µg/mL; in [20], 64 µg/mL; in assay [21] (Serratia marcescens, 1966PR), 64 µg/mL; in assay [22] (Serratia marcescens), 32 µg/mL.
